Test results published in patent US20240246967A1, “AXL COMPOUNDS” (ARCUS BIOSCIENCES, INC., priority 2021, published 2024).

Experiments:
[1] = biological target: T1, Axl (Homo sapiens, UniProt P30530); assay: Axl NanoBRET intracellular kinase assay (intracellular binding, Cell Binding); set-up: host or cells: HEK-293; details: HEK-293 cells transfected with Axl-NanoLuc fusion vector; 0.35 μM K-5 NanoBRET tracer
T1 sequence (P30530 26-894): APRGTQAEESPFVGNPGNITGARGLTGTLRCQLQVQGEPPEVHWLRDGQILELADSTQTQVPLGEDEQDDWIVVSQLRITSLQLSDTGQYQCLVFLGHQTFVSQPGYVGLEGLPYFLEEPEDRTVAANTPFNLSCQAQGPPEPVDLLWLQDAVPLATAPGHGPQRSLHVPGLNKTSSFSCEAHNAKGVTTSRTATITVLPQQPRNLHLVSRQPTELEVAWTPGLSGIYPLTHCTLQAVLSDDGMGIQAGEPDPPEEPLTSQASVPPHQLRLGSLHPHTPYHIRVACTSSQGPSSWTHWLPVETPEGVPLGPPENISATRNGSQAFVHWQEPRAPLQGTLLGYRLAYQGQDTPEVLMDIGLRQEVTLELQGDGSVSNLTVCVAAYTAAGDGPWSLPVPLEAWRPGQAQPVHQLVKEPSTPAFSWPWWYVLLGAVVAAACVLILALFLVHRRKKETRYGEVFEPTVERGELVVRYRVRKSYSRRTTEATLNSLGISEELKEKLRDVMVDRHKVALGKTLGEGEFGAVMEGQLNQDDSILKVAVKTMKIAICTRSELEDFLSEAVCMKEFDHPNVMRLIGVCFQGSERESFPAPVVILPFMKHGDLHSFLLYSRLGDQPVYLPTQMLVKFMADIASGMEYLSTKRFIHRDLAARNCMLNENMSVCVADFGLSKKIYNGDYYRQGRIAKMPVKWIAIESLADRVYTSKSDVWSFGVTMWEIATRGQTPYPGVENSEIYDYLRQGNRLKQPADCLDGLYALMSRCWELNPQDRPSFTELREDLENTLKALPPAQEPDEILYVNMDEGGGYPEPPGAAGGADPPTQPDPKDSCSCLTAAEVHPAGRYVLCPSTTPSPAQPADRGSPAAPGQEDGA
Protocol: Axl NanoBRET™ intracellular kinase assay (Promega, N2540) was performed according to manufacturer's recommendation. In brief, HEK-293 cells are transiently transfected with Axl-NanoLuc fusion vector (Promega, NV1071), utilizing Fugene HD transfection reagent (Promega, E2311) a day before experiment following manufacturer's recommendation.
The day of the assay, the cells were collected and resuspended in Opti-MEM media (ThermoFisher, 31985070) at 2e5 cells/mL concentration. Testing compounds were serial diluted and dispensed into a white 384 well polystyrene plate at 200 nL in 100% DMSO. 40 μL of resuspended cells is then added per well for a final condition of 8K cells/well with 0.5% DMSO. After one-hour compound pre-incubation at 37° C. and 5% CO2, cells were further incubated with 0.35 μM K-5 NanoBRET tracer for two-hours at 37° C. and 5% CO2. […] of 3× substrate plus Inhibitor solution was prepared according to kits manual and added to the cells followed by a 30 second pulse centrifugation spin. The plate was then immediately read utilizing an Envision (Perkin Elmer) plate reader. The BRET signal is measured by taking the ratio of the emissions reading at 610 nm and 450 nm. Compound binding is based on the decrease BRET signal caused by the displacement of the K-5 tracer. […] IC50 value of compounds was determined by 4-parameter non-linear regression fitting of percent activity in GraphPad Prism software.

[2] = biological target: T1, Axl; assay: HTRF KinEASE-TK biochemical potency assay, AXL; set-up: purchased Invitrogen; details: 5 nM AXL, 700 μM ATP, 800 nM TK Substrate-biotin
Protocol: Purified recombinant human AXL, TYRO3 and MER proteins were purchased from Invitrogen™. 10 nM AXL, 2 nM TYRO3 or MER were incubated with varying concentrations of compounds in 50 mM HEPES, pH 7.4, 10 mM MgCl2, 0.01% BSA, 1 mM DTT and 2% DMSO in a total volume of 20 μl in a 384-well microplate (Corning™ #3640) at RT for 1 h. The AXL, TYRO3 and MER enzymatic reaction was initiated by transferring 10 μl of enzyme and compound mixture into 10 μl of 1.6 μM TK Substrate-biotin (HTRF® KinEASE-TK kit, Cisbio) and 1400 μM ATP pre-incubated in 50 mM HEPES, pH 7.4, 10 mM MgCl2, 0.01% BSA, 1 mM DTT in a 384-well microplate (Corning™ #3640) at RT, giving the final reaction conditions: 5 nM AXL, 1 nM TYRO3 or MER, 800 nM TK Substrate-biotin and 700 μM ATP in 50 mM HEPES, pH 7.4, 10 mM MgCl2, 0.01% BSA, 1 mM DTT and 1% DMSO with varying concentrations of compounds. Following 2 h incubation at RT, the AXL, TYRO3 and MER enzymatic reaction was stopped by transfer of 10 μl of reaction into 10 μl of detection mix (400 nM Streptavidin-XL665, 200-fold dilution TK Antibody-Cryptate and detection buffer, HTRF® KinEASE-TK kit, Cisbio) in a white 384-well microplate (Perkin Elmer, OptiPlate 384). After 1 h incubation at RT, the plate was put into a plate reader (Evision) to read at 665/620 nm (acceptor/donor) for HTRF. The value of the DMSO blank (MIN inhibition=100% activity) was used as a negative control. The positive control was established by adding 5 μl of enzyme and DMSO mixture into 10 μl of detection mix followed by addition of 5 μl of TK Substrate-biotin and ATP mixture (MAX inhibition=0% activity). To calculate the percent activity, Equation 1 was used. Ratio 665/620 is the value at a given compound concentration: […]

SMILES	IC50 [1] [nM]	IC50 [2] [nM]
Cc1cc(C(N)=O)ccc1-c1n[nH]c2ncc(-c3ccc4c(c3)CC[C@@H](N3CCCC3)CC4)cc12 [Example 86, (S)-3-Methyl-4-(5-(7-(pyrrolidin-1-yl)-6,7,8,9-tetrahydro-5H-benzo[7]annulen-2-yl)-1H-pyrazolo[3,4-b]pyridin-3-yl)benzamide]	100 to 1000	< 100
CC(C)(O)c1ccc(-c2n[nH]c3ncc(-c4ccc5c(c4)CCN(C4CCCC4)CC5)cc23)cc1OC(F)(F)F [Example 14, 2-{4-[5-(3-Cyclopentyl-2,3,4,5-tetrahydro-1H-3-benzazepin-7-yl)-1H-pyrazolo[3,4-b]pyridin-3-yl]-2-(trifluoromethoxy)phenyl}propan-2-ol]	> 1000	
CC(C)(O)c1ccc(-c2n[nH]c3ncc(-c4ccc5c(c4)CN(C4CCCC4)CC5)cc23)cc1Cl [Example 29, 2-(2-Chloro-4-(5-(2-cyclopentyl-1,2,3,4-tetrahydroisoquinolin-7-yl)-1H-pyrazolo[3,4-b]pyridin-3-yl)phenyl)propan-2-ol]	> 1000	
CC(C)(O)c1ccc(-c2c[nH]c3ncc(-c4ccc5c(c4)CCC(N4CCCC4)CC5)cc23)cc1Cl (stereo not shown) [Example 106, 2-(2-Chloro-4-{5-[7-(pyrrolidin-1-yl)-6,7,8,9-tetrahydro-5H-benzo[7]annulen-2-yl]-1H-pyrrolo[2,3-b]pyridin-3-yl}phenyl)propan-2-ol]	100 to 1000	< 100
C[C@@H]1CCCN1C1(C)CCc2ccc(-c3cnc4[nH]cc(C5CCN(S(C)(=O)=O)CC5)c4c3)cc2CC1 (stereo partly drawn) [Example 116, 1-Methanesulfonyl-4-(5-{7-methyl-7-[(2R)-2-methylpyrrolidin-1-yl]-6,7,8,9-tetrahydro-5H-benzo[7]annulen-2-yl}-1H-pyrrolo[2,3-b]pyridin-3-yl)piperidine]	< 100	
CS(=O)(=O)c1ccc(-c2n[nH]c3nc(N)c(-c4ccc5c(c4)CCN(C4CCCC4)CC5)cc23)cc1 [Example 19, 5-(3-Cyclopentyl-2,3,4,5-tetrahydro-1H-3-benzazepin-7-yl)-3-(4-methanesulfonylphenyl)-1H-pyrazolo[3,4-b]pyridin-6-amine]	> 1000	100 to 1000
CC(C)S(=O)(=O)c1ccc(-c2n[nH]c3ncc(-c4ccc5c(c4)CCC(C)(N4CCC[C@H]4C)CC5)cc23)cc1 (stereo partly drawn) [Example 43, 3-(4-(Isopropylsulfonyl)phenyl)-5-(7-methyl-7-((R)-2-methylpyrrolidin-1-yl)-6,7,8,9-tetrahydro-5H-benzo[7]annulen-2-yl)-1H-pyrazolo[3,4-b]pyridine]	< 100	< 100
CC(C)(O)c1ccc(-c2n[nH]c3ncc(-c4ccc5c(c4)CCN(C4CCCC4)C5)cc23)cc1Cl [Example 28, 2-(2-Chloro-4-(5-(2-cyclopentyl-1,2,3,4-tetrahydroisoquinolin-6-yl)-1H-pyrazolo[3,4-b]pyridin-3-yl)phenyl)propan-2-ol]	> 1000	
CC(C)(O)c1ccc(-c2n[nH]c3ncc(-c4ccc5c(c4)CCN(C4CCCC4)CC5)cc23)cc1 [Example 18, 2-{4-[5-(3-Cyclopentyl-2,3,4,5-tetrahydro-1H-3-benzazepin-7-yl)-1H-pyrazolo[3,4-b]pyridin-3-yl]phenyl}propan-2-ol]	100 to 1000	
CC(C)(O)c1ccc(-c2n[nH]c3ncc(-c4ccc5c(c4)CCN(C4CCCC4)CC5)c(F)c23)cc1Cl [Example 15, 2-{2-Chloro-4-[5-(3-cyclopentyl-2,3,4,5-tetrahydro-1H-3-benzazepin-7-yl)-4-fluoro-1H-pyrazolo[3,4-b]pyridin-3-yl]phenyl}propan-2-ol]	> 1000	
CC(C)(C#N)c1ccc(-c2n[nH]c3ncc(-c4ccc5c(c4)CCN(C4CCCC4)CC5)cc23)cc1 [Example 33, 2-(4-(5-(3-Cyclopentyl-2,3,4,5-tetrahydro-1H-benzo[d]azepin-7-yl)-1H-pyrazolo[3,4-b]pyridin-3-yl)phenyl)-2-methylpropanenitrile]	> 1000	100 to 1000
CC(C)(O)c1ccc(-c2n[nH]c3ncc(-c4ccc5c(c4)CC[C@@H](N4CCCC4)CC5)cc23)c(Cl)c1 [Example 51, 2-(3-Chloro-4-{5-[(7S)-7-(pyrrolidin-1-yl)-6,7,8,9-tetrahydro-5H-benzo[7]annulen-2-yl]-1H-pyrazolo[3,4-b]pyridin-3-yl}phenyl)propan-2-ol]	100 to 1000	100 to 1000
CC(O)(c1ccc(-c2n[nH]c3ncc(-c4ccc5c(c4)CCN(C4CCCC4)CC5)cc23)cc1)C(F)(F)F (stereo not shown) [Example 13, 2-{4-[5-(3-Cyclopentyl-2,3,4,5-tetrahydro-1H-3-benzazepin-7-yl)-1H-pyrazolo[3,4-b]pyridin-3-yl]phenyl}-1,1,1-trifluoropropan-2-ol]	100 to 1000	
CCS(=O)(=O)c1ccc(-c2n[nH]c3ncc(-c4ccc5c(c4)CCC(C)(N4CCC[C@H]4C)CC5)cc23)cc1 (stereo partly drawn) [Example 44, 3-(4-(Ethylsulfonyl)phenyl)-5-(7-methyl-7-((R)-2-methylpyrrolidin-1-yl)-6,7,8,9-tetrahydro-5H-benzo[7]annulen-2-yl)-1H-pyrazolo[3,4-b]pyridine]	< 100	< 100
CNC(=O)c1ccc(-c2n[nH]c3ncc(-c4ccc5c(c4)CCC(C)(N4CCC[C@H]4C)CC5)cc23)cc1 (stereo partly drawn) [Example 71, N-Methyl-4-(5-{7-methyl-7-[(2R)-2-methylpyrrolidin-1-yl]-6,7,8,9-tetrahydro-5H-benzo[7]annulen-2-yl}-1H-pyrazolo[3,4-b]pyridin-3-yl)benzamide]	< 100	
